We go through five compounds from patent US20180153993A1, “COMPOSITIONS AND METHODS FOR TREATMENT AND PREVENTION OF CARDIOVASCULAR DISEASES” (The Chinese University of Hong Kong, priority 2016, published 2018).

Assay [1] deals with RhoA. As to the kind of experiment: GST-RBD pull-down for active RhoA (GTP-RhoA) detection. The class given is cell-based, human. The note with it: MnCl2 treatment. How it is done:
GST-RBD recombinant protein was purified from BL21 (DE3) Escherichia coli and affinity conjugated to glutathione sepharose beads (Pharmacia). For GST affinity pull-down, 10^7 cells were lysed in 1 ml Weak Lysis Buffer (Beyotime) supplemented with protease inhibitors (Roche). Cell lysates were centrifuged at 15,000 g at 4° C. for 20 min to remove cell debris. Cell lysates were incubated in sepharose beads conjugated with 1 μg GST-RBD and incubate at 4° C. for 2 h with constant agitation, and precipitated by centrifugation at 1,000 r.p.m. for 10 min. After three washes, beads were collected by centrifugation and boiled in 2× SDS loading buffer for 5 min. The active RhoA was determined by western blotting.

Assay [2] relates to YAP/TAZ. As to the kind of experiment: YAP/TAZ nuclear exportation in HUVECs. The class given is cell-based, human.
In assay [3] the test system is YAP/TAZ. The assay can be described thus: YAP/TAZ reporter (8xGTIIC-luc) gene activity in HUVECs. The format is cell-based, human.
For assay [4], the system named is YAP. The assay can be described thus: YAP phosphorylation (Ser127, pYAP) by immunoblotting in HUVECs. The format is cell-based, human. How it is done:
Cells or tissues were homogenized in cold RIPA lysis buffer supplemented with complete protease inhibitors cocktail and phosSTOP phosphatase inhibitor (Roche). The protein concentration was determined using Bradford Assay (Bio-Rad). Ten micrograms of protein were resolved by SDS-polyacrylamide gel electrophoresis and transferred to the PVDF membrane (Bio-Rad). Target protein was detected using specific primary antibody. Bound antibodies were detected by horseradish-peroxidase-conjugated secondary antibody and visualized by enhanced chemiluminescence (Cell Signaling Technology). Experiments were repeated three times and the target protein level was quantified by imageJ and normalized to internal control (or pYAP was normalized by total YAP) (FIGS. 10 and 11).
(§1) HUVECs and human aortic ECs were purchased from Lonza (EGM, Clonetics, Lonza, Walkersville, Md., USA). Lonza guarantees that the cells express CD31/105, von Williebrand Factor VIII, and are positive for acetyated low density lipoprotein uptake. Mycoplasma contamination was not tested during the experiments. HUVECs maintained in EGM supplemented with EGS and FBS at 37° C. in an incubator with 95% humidified air and 5% CO2 and passed every 3 days. Cells within seven passages were used in in vitro study.
A general note: In western blotting, separated proteins are transferred to a membrane and probed.

In assay [5] the test system is ApoE−/− mice. The assay can be described thus: Oral administration of MnCl2 in ApoE-/- mice on Western diet, Oil Red O staining of atherosclerotic plaques. The note with it: Western diet 12 weeks, MnCl2 oral in drinking water 5 mg/kg body weight. The class given is in vivo, mouse. How it is done:
ApoE^−/− mice (male, 12 weeks old) were fed a Western diet, and MnCl2 was administered through voluntary water consumption. Water consumption rate was predetermined by monitoring the volume of water remained. MnCl2 was supplemented to drinking water to achieve 5 mg/kg body weight. Mice body weight and water consumption were adjusted weekly to adapt to the change of body weight and water consumption. After feeding on the Western diet for 3 months, the mice were killed and the atherosclerotic plaque formation was determined by Oil Red O staining.
The ApoE^−/− mice were killed by CO2 asphyxiation. Mouse aortas were dissected in cold PBS and cut open to expose the atherosclerotic plaques. After fixation in 4% formaldehyde for 16 h at 4° C., the tissues were first rinsed in water for 10 min and then in 60% isopropanol. The aortas were stained with Oil Red O for 15 min with gentle shaking, and rinsed again in 60% isopropanol and then in water for three rinses. The samples were fixed on the cover slides with the endothelial surface facing upwards. The images were recorded using an HP Scanjet G4050. The plaque areas were determined using National Institutes of Health ImageJ software and calculated by expressing the plaque area relative to the total vascular area.

In assay [6] the test system is YAP/TAZ. The assay can be described thus: YAP/TAZ reporter gene activity assay of anti-atherosclerotic agents (YAP/TAZ inhibition test). The format is cell-based, human. The note with it: working concentrations of Table 1: apelin 100 nM, ApoA1 10 μg/mL, niacin 3 to 5 mM, statins 1-10 μM. The source says:
Adenovirus-mediated reporter system and immortalized human aortic endothelial cells (HAECs) are used for drug screening. […] Endothelial cells express specific receptors that determine their unique response to different drug treatment. Therefore, it is necessary to use endothelial cells to study the YAP/TAZ inhibitory effect of lead drugs. Since primary endothelial cells from different donors contain distinct genetic background, which might cause significant variation between different batches of experiments, the immortalized human aortic endothelial cells are used. However, endothelial cells are difficult to be transformed, which could delay research progress and increase cost. To overcome this problem, the inventors have generated adenoviral expressing YAP/TAZ luciferase reporter and renilla internal control. The entire screening process can be completed in two days.
In general terms: Reporter assays use an easily measured gene product as a stand-in for the process of interest.

In assay [7] the test system is YAP/TAZ. As to the kind of experiment: YAP/TAZ target gene expression (CTGF, CYR61), quantitative real-time PCR in HUVECs. The format is cell-based, human. To be noted: CTGF and CYR61. How it is done: RNA was extracted by using TRIzol Reagent (Thermo) according to the manufacturer's protocol. cDNA was synthesized using a High-Capacity cDNA Reverse Transcription Kit (Thermo). Quantitative PCR was performed using SYBR Select (Thermo) following the manufacturer's protocol. GAPDH was used as the internal control. Primers used for quantitative real-time PCR were included in Table 2.
as §1
(In general: Quantitative PCR measures a nucleic acid by following its amplification.)

For the compound `[Cl][Mn][Cl]` [MnCl2], in assay [1], the “GTP-RhoA (active RhoA)” value is “GTP-RhoA suppression”. In assay [2], the YAP/TAZ nuclear exportation result is given as “induced YAP/TAZ nuclear exportation”. Besides, the “YAP/TAZ reporter gene activity” value in assay [3] was “reduced YAP/TAZ reporter gene activity”. The “YAP phosphorylation (pYAP)” value in assay [4] (MnCl2 0.5 mM) was “increased pYAP”. Moreover, the atherosclerotic plaque formation result in assay [5] is “reduced plaque formation”.
For `O=C(O)c1cccnc1` [niacin, Nicotinic acid], the “YAP/TAZ activity (reporter gene)” value in assay [6] is recorded as “suppressed YAP/TAZ activity”.
Regarding Apelin, the “YAP/TAZ activity (reporter gene)” value in assay [6] is reported as “suppressed YAP/TAZ activity”.
With ApoA1, in assay [6], the “YAP/TAZ activity (reporter gene)” value is recorded as “suppressed YAP/TAZ activity”.
Take GRGDSP: the “YAP phosphorylation (pYAP)” value in assay [4] (GRGDSP 100 μg ml−1) is listed as “increased pYAP”. Also, the “YAP/TAZ target gene expression” value in assay [7] is recorded as “suppressed YAP/TAZ target gene expression”.
